Values of other authors in PubChem BioAssay AID1259409 (Chemical Carcinogenesis Research Information System (CCRIS), 2018).

System: rodent chemically induced tumor inhibition, incidence and multiplicity
Test: CCRIS tumor inhibitor studies

CC1=C(/C=C/C(C)=C/C=C/C(C)=C/C(=O)NCC(O)CO)C(C)(C)CCC1 (centres undefined)
tumour outcome (control, treated, inhibition, significance) (Carcinogen: N-BUTYL-N-(4-HYDROXYBUTYL)NITROSAMINE, 3817-11-6, Dose [Inhibitor]: 1.5 MMOL/KG/D IN DIET FOR 108 D STARTING 1 WK POST CARCINOGEN TREATMENT (STUDY DURATION: 171 D), Route [Inhibitor]: ORAL, Species: MOUSE, Strain/Sex: BDF/MALE, Target Tissue: Type of Lesion: URINARY BLADDER: TRANSITIONAL CELL CARCINOMA, Dose [Carcinogen]: 5 MG 2/WK FOR 9 WK, Promoter: NONE USED): 31/55 (56%), 25/54 (46%), 18%, not significant
tumour outcome (control, treated, inhibition, significance) (Carcinogen: N-NITROSOBIS(2-OXOPROPYL)AMINE, 60599-38-4, Dose [Inhibitor]: 0.25 MMOL/KG OF DIET FOR 184 D STARTING 2 WK AFTER LAST CARCINOGEN DOSE WITH 4 INTERMITTENT 1 WK REST PERIODS OF VEHICLE, Route [Inhibitor]: ORAL, Species: HAMSTER, Strain/Sex: SYRIAN/FEMALE, Target Tissue: Type of Lesion: PANCREAS: CARCINOMA, Dose [Carcinogen]: 20 MG/KG INJECTION GIVEN TWICE 1 WK APART, Promoter: NONE USED): 38%, 35%, 8%, not calculated
tumour outcome (control, treated, inhibition, significance) (Carcinogen: N-NITROSOBIS(2-OXOPROPYL)AMINE, 60599-38-4, Dose [Inhibitor]: 0.25 MMOL/KG OF DIET FOR 184 D STARTING 2 WK AFTER LAST CARCINOGEN DOSE WITH 4 INTERMITTENT 1 WK REST PERIODS OF VEHICLE, Route [Inhibitor]: ORAL, Species: HAMSTER, Strain/Sex: SYRIAN/MALE, Target Tissue: Type of Lesion: PANCREAS: CARCINOMA, Dose [Carcinogen]: 20 MG/KG INJECTION GIVEN TWICE 1 WK APART, Promoter: NONE USED): 34%, 43%, -26%, not calculated
tumour outcome (control, treated, inhibition, significance) (Carcinogen: N-NITROSOBIS(2-OXOPROPYL)AMINE, 60599-38-4, Dose [Inhibitor]: 0.25 MMOL/KG OF DIET FOR 350 D STARTING 2 WK AFTER LAST CARCINOGEN DOSE AND INTERRUPTED TWICE BY 1 WK REST PERIODS OF VE, Route [Inhibitor]: ORAL, Species: HAMSTER, Strain/Sex: SYRIAN/FEMALE, Target Tissue: Type of Lesion: LIVER: HEPATOCELLULAR CARCINOMA, Dose [Carcinogen]: 20 MG/KG INJECTION GIVEN TWICE 1 WK APART, Promoter: NONE USED): 5%, 28%, -460%, not calculated
tumour outcome (control, treated, inhibition, significance) (Carcinogen: N-NITROSOBIS(2-OXOPROPYL)AMINE, 60599-38-4, Dose [Inhibitor]: 0.25 MMOL/KG OF DIET FOR 350 D STARTING 2 WK AFTER LAST CARCINOGEN DOSE AND INTERRUPTED TWICE BY 1 WK REST PERIODS OF VE, Route [Inhibitor]: ORAL, Species: HAMSTER, Strain/Sex: SYRIAN/MALE, Target Tissue: Type of Lesion: LIVER: HEPATOCELLULAR CARCINOMA, Dose [Carcinogen]: 20 MG/KG INJECTION GIVEN TWICE 1 WK APART, Promoter: NONE USED): 7%, 14%, -100%, not calculated
tumour outcome (control, treated, inhibition, significance) (Carcinogen: N-NITROSOBIS(2-OXOPROPYL)AMINE, 60599-38-4, Dose [Inhibitor]: 0.5 MMOL/KG OF DIET FOR 153 D STARTING 2 WK AFTER LAST CARCINOGEN DOSE WITH 4 INTERMITTENT 1 WK REST PERIODS OF VEHICLE-, Route [Inhibitor]: ORAL, Species: HAMSTER, Strain/Sex: SYRIAN/FEMALE, Target Tissue: Type of Lesion: LIVER: HEPATOCELLULAR CARCINOMA, Dose [Carcinogen]: 20 MG/KG INJECTION GIVEN TWICE 1 WK APART, Promoter: NONE USED): 5%, 0%, 100%, not calculated
tumour outcome (control, treated, inhibition, significance) (Carcinogen: N-NITROSOBIS(2-OXOPROPYL)AMINE, 60599-38-4, Dose [Inhibitor]: 0.5 MMOL/KG OF DIET FOR 153 D STARTING 2 WK AFTER LAST CARCINOGEN DOSE WITH 4 INTERMITTENT 1 WK REST PERIODS OF VEHICLE-, Route [Inhibitor]: ORAL, Species: HAMSTER, Strain/Sex: SYRIAN/FEMALE, Target Tissue: Type of Lesion: PANCREAS: NEOPLASM, Dose [Carcinogen]: 20 MG/KG INJECTION GIVEN TWICE 1 WK, Promoter: NONE USED): 38%, 21%, 45%, not calculated
tumour outcome (control, treated, inhibition, significance) (Carcinogen: N-NITROSOBIS(2-OXOPROPYL)AMINE, 60599-38-4, Dose [Inhibitor]: 0.5 MMOL/KG OF DIET FOR 153 D STARTING 2 WK AFTER LAST CARCINOGEN DOSE WITH 4 INTERMITTENT 1 WK REST PERIODS OF VEHICLE-, Route [Inhibitor]: ORAL, Species: HAMSTER, Strain/Sex: SYRIAN/MALE, Target Tissue: Type of Lesion: PANCREAS: CARCINOMA, Dose [Carcinogen]: 20 MG/KG INJECTION GIVEN TWICE 1 WK APART, Promoter: NONE USED): 34%, 36%, -6%, not calculated

C/C=C/C1=CC2=C(CO1)C(=O)[C@]1(C)OC(=O)[C@H](C(=O)CCCCC)[C@H]1C2
tumour outcome (control, treated, inhibition, significance) (Carcinogen: PEROXYNITRITE [19059-14-4], Dose [Inhibitor]: 0.0025% FOR 2 WKS BEFORE PROMOTER (STUDY DURATION: 20 WK), Route [Inhibitor]: DRINKING WATER, Species: MOUSE, Strain/Sex: SENCAR/FEMALE (15,?)/(15,?), Target Tissue: Type of Lesion: SKIN: PAPILLOMA, Dose [Carcinogen]: 390 NM IN 0.1 ML 1 MM NAOH ONCE 1 WK AFTER INHIBITOR, Promoter: 12-O-TETRADECANOYLPHORBOL-13-ACETATE [16561-29-8]): 100%, 80%, 20%, not significant
tumour outcome (control, treated, inhibition, significance) (Carcinogen: UVB IRRADIATION, Dose [Inhibitor]: 0.0025% IN DRINKING WATER FOR 2 WKS BEGINNING WHILE MICE RECEIVED UVB (STUDY DURATION: 20 WK), Route [Inhibitor]: DRINKING WATER, Species: MOUSE, Strain/Sex: SENCAR/FEMALE (15,?)/(15,?), Target Tissue: Type of Lesion: SKIN: PAPILLOMA, Dose [Carcinogen]: 15 MIN EACH D FOR 3 D, Promoter: 12-O-TETRADECANOYLPHORBOL-13-ACETATE [16561-29-8]): 100%, 53%, 47%, not significant

C=C(C)[C@@H]1CC[C@]2(C(=O)O)CC[C@]3(C)[C@H](CC[C@@H]4[C@@]5(C)CC[C@H](O)C(C)(C)[C@@H]5CC[C@]43C)[C@@H]12
tumour outcome (control, treated, inhibition, significance) (Carcinogen: 7,12-DIMETHYLBENZ[A]ANTHRACENE, 57-97-6, Dose [Inhibitor]: 0, 5 UMOL 2/WK BEGINNING 1 WK POST CARCINOGEN TREATMENT AND CONTINUING FOR 18 WK (STUDY DURATION: 19 WK), Route [Inhibitor]: DERMAL, Species: MOUSE, Strain/Sex: ICR/FEMALE, Target Tissue: Type of Lesion: SKIN: PAPILLOMA, Dose [Carcinogen]: 50 UG ONCE, Promoter: 12-O-TETRADECANOYLPHORBOL-13-ACETATE, 16561-29-8): 100%, 65%, 35%, not calculated

CCS(=O)(=O)Nc1ncc(C(F)(F)F)cc1NC(=O)C1CCCCC1
tumour outcome (control, treated, inhibition, significance) (Carcinogen: N-NITROSOBIS(2-OXOPROPYL)AMINE [60599-38-4], Dose [Inhibitor]: 200 PPM FOR 16 WK BEGINNING 1 WK POST CHOLECYSTODUOODENOSTOMY AND LIGATION OF DISTAL END OF COMMON DUCT (STUDY DURATION:, Route [Inhibitor]: ORAL, Species: HAMSTER, Strain/Sex: SYRIAN/FEMALE, Target Tissue: Type of Lesion: EXTRAHEPATIC BILE DUCT: ADENOCARCINOMA, Dose [Carcinogen]: 10 MG/KG BW 1X/WK FOR 10 WK BEGINNING 1 WK POST CHOLECYSTODUODENOSTOMY AND LIGATION OF DISTAL END OF COMMON DUCT (STUDY, Promoter: NONE): 14/26 (54%), 2/15 (13%), 76%, p<0.05
tumour outcome (control, treated, inhibition, significance) (Carcinogen: N-NITROSOBIS(2-OXOPROPYL)AMINE [60599-38-4], Dose [Inhibitor]: 200 PPM FOR 16 WK BEGINNING 1 WK POST CHOLECYSTODUOODENOSTOMY AND LIGATION OF DISTAL END OF COMMON DUCT (STUDY DURATION:, Route [Inhibitor]: ORAL, Species: HAMSTER, Strain/Sex: SYRIAN/FEMALE, Target Tissue: Type of Lesion: GALL BLADDER: ADENOCARCINOMA, Dose [Carcinogen]: 10 MG/KG BW 1X/WK FOR 10 WK BEGINNING 1 WK POST CHOLECYSTODUOODENOSTOMY AND LIGATION OF DISTAL END OF COMMON DUCT (STUDY, Promoter: NONE): 18/26 (69%), 3/15 (20%), 71%, p<0.01
tumour outcome (control, treated, inhibition, significance) (Carcinogen: N-NITROSOBIS(2-OXOPROPYL)AMINE [60599-38-4], Dose [Inhibitor]: 200 PPM FOR 16 WK BEGINNING 1 WK POST CHOLECYSTODUOODENOSTOMY AND LIGATION OF DISTAL END OF COMMON DUCT (STUDY DURATION:, Route [Inhibitor]: ORAL, Species: HAMSTER, Strain/Sex: SYRIAN/FEMALE, Target Tissue: Type of Lesion: INTRAHEPATIC BILE DUCT: ADENOCARCINOMA, Dose [Carcinogen]: 10 MG/KG BW 1X/WK FOR 10 WK BEGINNING 1 WK POST CHOLECYSTODUODENOSTOMY AND LIGATION OF DISTAL END OF COMMON DUCT (STUDY, Promoter: NONE): 14/26 (54%), 3/15 (20%), 63%, p<0.05
